Results: patent publication US8470745B2, “Methods and compositions for obtaining and using biologically active multi-protein complexes” (priority 2006, dated 2013)

Assays:
[1] = tested on: NMDAR complexes; experiment: Activity test on immobilized NMDAR complexes (immunoblotting and immunofluorescence detection); type: biochemical, rat; settings: Five mM SOV, 30° C. for 1 hour, vs control
Method: Experiments were performed on cortical tissue obtained from 3 week-old Sprague-Dawley rats. All procedures were conducted in strict adherence with the NIH Guide for the Care and Use of Laboratory Animals. Cortical tissue from 21 day-old rats was solubilized using a syringe in solubilization/immunoprecipitation buffer containing 0.1% Triton X-100, 0.2% β-mercaptoethanol, 50 mM Tris-HCl pH 7.5, 5 mM EDTA, 5 mM EGTA, 10 mg/ml of Sigma protease inhibitor cocktail, 1 mM phenylmethylsulfonyl fluoride. The tissue homogenate was centrifuged (15,000 g for 10 min at 4° C.) to remove insoluble material. The supernatantusprenat was kept at 4° C. and used later for immunoprecipitation. Protein A/G pre-coated 96-well plates (Pierce Biotechnology, Rockford, Ill.) were used for immunoprecipitation of active NMDA receptor complexes. The plates were washed with the solubilization/immunoprecipitation buffer and anti-NR1 antibody (20 μg) was added to each well in 100 μL of extraction buffer. Following a 2 hour incubation at room temperature, the wells were rinsed 3 times with solubilization/immunoprecipitation buffer and 100 μL of supernatant were added to each well. Following 4 hours incubation at 4° C., the wells were washed three times with a reaction buffer containing: 0.2% β-mercaptoethanol, 25 mM Tris-HCl pH 7.5, 30 mM MgCl2, 20 mM MnCl2, 0.5 mM DTT.
Fifty μL of reaction buffer, 500 μM ATP, and the agents to be tested were added to each well. The control wells contained 50 μL of reaction buffer alone or in the presence 500 μM ATP. All samples were incubated at 30° C. for 1 hour. […]
For fluorescence detection experiments, black 96-well plates were used to avoid fluorescence spill over. […] Multi-well plates were read on a Cytofluor 2350 fluorescence plate reader using the appropriate filters. […]

[2] = tested on: GABAA receptor complexes; experiment: Tyrosine phosphorylation in isolated GABAA receptor complexes (Western blotting); type: biochemical; settings: Five mM SOV, 30° C. for 1 hour, hippocampus tissue, vs control
Method: To test the effect of PTP inhibitor SOV on isolated GABA receptor complexes, hippocampus tissue was removed and homogenized with the solubilization/immunoprecipitation buffer described above. GABAA receptor complexes were immunoprecipitated using anti-β2/β3 antibody (Upstate Biotechnology, Lake Placid, N.Y., USA) as described in Example 1. The immobilized complexes were rinsed and solubilization/immunoprecipitation buffer was replaced with reaction buffer. This reaction buffer was added to all the wells. Control wells contained only the reaction buffer or reaction buffer and ATP alone. Five mM of SOV was added to the rest of the wells and incubated at 30° C. for 1 hour. The reaction was stopped with a blocking buffer and samples rinsed and subjected to Western blotting with anti-pTyr and anti-β2/β3 antibodies.

[3] = tested on: α-7nACh receptor complexes; experiment: Tyrosine phosphorylation in isolated α-7nACh receptor complexes (Western blotting); type: biochemical; settings: Five mM SOV, 30° C. for 1 hour, hippocampus tissue, vs control
Method: To test the effect of PTP inhibitor SOV on isolated a-7nACh receptor complexes, hippocampus tissue was dissected from the brain and homogenized with the solubilization/immunoprecipitation buffer described above, with some modifications. The solubilization buffer contained 0.05% TritonX-100 instead of 0.1% as used in Example 1. Immobilized complexes were rinsed and solubilization/immunoprecipitation buffer was replaced with reaction buffer. This reaction buffer was added to all the wells. Control wells contained only the reaction buffer or reaction buffer and ATP alone. Five mM SOV was added to rest of the wells and incubated at 30° C. for 1 hour. The reaction was stopped with a blocking buffer and samples rinsed and subjected to Western blotting with anti-pTyr, anti-α7 antibodies.

[4] = tested on: HCN4 ion channel complexes; experiment: Tyrosine phosphorylation in isolated HCN4 ion channel complexes; type: biochemical; settings: Five mM SOV, 30° C. for 1 hour; rat ventricles; vs control
Method: To test the effect of PTP inhibitor SOV, rat ventricles were dissected and homogenized in solubilization/immunoprecipitation buffer and subjected to co-immunoprecipitation by incubation with anti-HCN4 polyclonal antibody (Alpha Diagnostic International, San Antonio, Tex.), as described in Example 1. Immobilized complexes were rinsed and solubilization/immunoprecipitation buffer was replaced with reaction buffer. This reaction buffer was added to all the wells. Control wells contained only the reaction buffer or reaction buffer and ATP alone. Five mM SOV was added to rest of the wells and incubated at 30° C. for 1 hour. The reaction was stopped with blocking buffer and samples were rinsed and subjected to Western blotting or fluorescence analysis using anti-pTyr and anti-HCN4 antibodies.

[5] = immunoblotting and immunofluorescence

**Q.** Which “amount of NR2A/B in the receptor (ratio NR2A/B to NR1)” value [1, 5] does the source give for `[Na+].[Na+].[Na+].[O]=[V]([O-])([O-])[O-]` [SOV, sodium orthovanadate] here?
**A.** decreased

**Q.** What about the “tyrosine phosphorylation of NR2A/B subunits (ratio of pTyr to NR2A/B)” value [1, 5] of the same molecule?
**A.** increased

**Q.** And the “amount of PSD-95 in the receptor (ratio PSD-95 to NR1)” value [1]?
**A.** decreased

**Q.** What about the “tyrosine phosphorylation of β2/β3 subunits (ratio of pTyr to β2/β3)” value [2] of the same molecule?
**A.** increased

**Q.** What about the “tyrosine phosphorylation of α-7 subunits in the receptor (FIG. 5: ratio of pTyr to α-7)” value [3] of the same molecule?
**A.** increased

**Q.** And the “tyrosine phosphorylation of HCN4 subunits (ratio of pTyr to HCN4)” value [4]?
**A.** increased
